Assay results from ChEMBL document CHEMBL5712086, “Spatially clustered loci with multiple enhancers are frequent targets of HIV-1 integration” (Nat Commun, 2019).
Activity calls are given as the source filed them. No cut-off for these calls is given here.

Experiments:
CD4+ T cell [1] = test: Effect on spatial localization of HIV-1 in human CD+ T cells at 500 nM incubated for 6 hrs followed by infection for 72 hrs by 3D immuno-DNA FISH assay; assay type: functional, cell-based; conditions: Human immunodeficiency virus 1, time 78.0 hrs
CD4+ T cell [2] = test: Effect on spatial localization of recurrent integration genes of HIV-1 in human CD+ T cells at 500 nM incubated for 6 hrs followed by infection for 72 hrs by 3D immuno-DNA FISH assay; assay type: functional, cell-based; conditions: Human immunodeficiency virus 1, time 78.0 hrs
CD4+ T cell [3] = test: Down regulation of protein-coding genes proximal to super enhancers in activated human CD+ T cells at 500 nM incubated for 6 hrs by transcriptional profiling relative to coding genes without SE; assay type: functional, cell-based
[4] = target: T1, Bromodomain and extra-terminal motif (BET) (Homo sapiens) (UniProt P25440+O60885+Q58F21+Q15059); conditions: CD4+ T cell, dose 500.0 nM, time 20.0 hrs
CD4+ T cell [5] = test: Upregulation of protein-coding genes proximal to super enhancers in activated human CD+ T cells at 500 nM incubated for 6 hrs by transcriptional profiling relative to coding genes without SE; assay type: functional, cell-based
CD4+ T cell [6] = test: Effect on HIV-1 insertion biases in human CD+ T cells assessed as insertion rate per chromosome at 500 nM incubated for 6 hrs; assay type: functional, cell-based; conditions: Human immunodeficiency virus 1
[7] = target: T1, Bromodomain and extra-terminal motif (BET) (Homo sapiens); conditions: CD4+ T cell, dose 500.0 nM, time 20.0 hrs; remark: listed apart in the source

In the case of Cc1sc2c(c1C)C(c1ccc(Cl)cc1)=N[C@@H](CC(=O)OC(C)(C)C)c1nnc(C)n1-2, the Activity (CD4+ T cell [1]) was “inactive”, the Activity (CD4+ T cell [2]) was “inactive” and the Activity (CD4+ T cell [3]) was “Active”. The inhibition [4] was “Active”, the Activity (CD4+ T cell [5]) was “Active” and the Activity (CD4+ T cell [6]) was “inactive”. The inhibition [7] was “Active”.
